Activity calls are given as the source filed them. No cut-off for these calls is given here.
What was measured:
[1] = system: Rattus norvegicus; assay: Antidiabetic activity in Sprague-Dawley rat assessed as decrease in glucose Cmax at 30 mg/kg
[2] = target: T1, Fructose-1,6-bisphosphatase 1 (Homo sapiens, UniProt P09467)
T1 sequence (P09467 whole entry): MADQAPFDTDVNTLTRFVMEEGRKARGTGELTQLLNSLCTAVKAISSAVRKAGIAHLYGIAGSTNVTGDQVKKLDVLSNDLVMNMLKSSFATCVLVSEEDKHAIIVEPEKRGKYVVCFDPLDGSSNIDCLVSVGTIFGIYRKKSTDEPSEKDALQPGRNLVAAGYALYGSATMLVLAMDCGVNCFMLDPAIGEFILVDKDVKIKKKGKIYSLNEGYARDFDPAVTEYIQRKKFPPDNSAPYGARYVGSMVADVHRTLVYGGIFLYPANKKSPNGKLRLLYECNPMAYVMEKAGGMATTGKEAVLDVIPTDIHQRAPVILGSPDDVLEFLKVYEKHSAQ
Description: Inhibition of human liver FBP

[3] = system: Rattus norvegicus; assay: Antidiabetic activity in Sprague-Dawley rat assessed as decrease in glucose Cmax at 10 mg/kg, iv; assay type: functional
[4] = Half life in Sprague-Dawley rat; assay type: ADME, organism-based; conditions: in vivo
[5] = Plasma protein binding in Sprague-Dawley rat; assay type: ADME, cell-free; conditions: read-out: PPB (converted)
[6] = Clearance in Sprague-Dawley rat; assay type: ADME, organism-based; conditions: in vivo
[7] = Volume of distribution in Sprague-Dawley rat; assay type: ADME, organism-based; conditions: in vivo
[8] = Plasma protein binding in human; assay type: ADME, cell-free; conditions: read-out: PPB (converted)
[9] = system: Rattus norvegicus; assay: (§1) Oral bioavailability in Sprague-Dawley rat; assay type: ADME, organism-based; conditions: in vivo
[10] = system: Rattus norvegicus; assay: Antidiabetic activity in Sprague-Dawley rat assessed as decrease in glucose Cmax at 10 mg/kg, po; assay type: functional
[11] = as §1; assay type: ADME, organism-based; conditions: Sprague-Dawley, in vivo
[12] = system: Rattus norvegicus; assay: Antihyperglycemic activity in Zucker fa/fa rat assessed as reduction in glucose level at 0.4 % w/w administered as food mixture; assay type: functional, organism-based
[13] = Oral bioavailability in dog; assay type: ADME, organism-based, Canis lupus familiaris; conditions: in vivo
[14] = Oral bioavailability in rat; assay type: ADME, organism-based; conditions: in vivo

Row | Structure (SMILES) | IC50 [2] | inhibition in vivo at 10 mg/kg [3] | other results
1 | CCOC(=O)OCOP(=O)(OCOC(=O)OCC)c1ccc(-c2nc(N)sc2CC(C)C)o1 |  |  | inhibition in vivo at 30 mg/kg [1]: 40%
2 | Nc1nc(-c2cccc(P(=O)(O)O)c2)cs1 | 1300 nM |  | 
3 | CC(C)(C)Sc1sc(N)nc1-c1ccc(P(=O)(O)O)o1 | 24 nM |  | 
4 | Nc1nc(-c2ccc(P(=O)(O)O)o2)c(-c2ccc(F)cc2)s1 |  | 60% | 
5 | Nc1nc(-c2ccc(P(=O)(O)O)o2)c(-c2ccco2)s1 |  | 21% | 
6 | CC(=O)c1ccc(-c2sc(N)nc2-c2ccc(P(=O)(O)O)o2)cc1 | 32 nM | 43% | 
7 | CC(C)Cc1sc(N)nc1-c1ccc(P(=O)(O)O)o1 [MB-05032] |  | 65% | half-life [4]: 39 min; fraction unbound [5]: 0.1; clearance [6]: 4 mL/min/kg; Vd [7]: 0.18 L/kg; fraction unbound [8]: 0.07; F [9]: 4%
8 | CC(C)Cc1sc(C(N)=O)nc1-c1ccc(P(=O)(O)O)o1 | 2750 nM |  | 
9 | Nc1nc(-c2ccc(P(=O)(O)O)o2)c(Br)s1 |  | 20% | 
10 | CC(C)Cc1sc(C#N)nc1-c1ccc(P(=O)(O)O)o1 | 2000 nM |  | 
11 | Nc1nc(-c2ccc(P(=O)(O)O)o2)c(C2CCC2)s1 | 19 nM |  | 
12 | CCCc1sc(N)nc1C(=O)OCP(=O)(O)O | 50 nM | 63% | 
13 | CC(C)Sc1sc(N)nc1-c1ccc(P(=O)(O)O)o1 | 24 nM | 48% | 
14 | CCCc1sc(N)nc1-c1ccc(P(=O)(O)O)s1 | > 10000 nM |  | 
15 | CC(C)Cc1sc(Br)nc1-c1ccc(P(=O)(O)O)o1 |  | 3% | 
16 | CCOC(=O)OC(C)OP(=O)(OC(C)OC(=O)OCC)c1ccc(-c2nc(N)sc2CC(C)C)o1 (stereo not drawn) |  |  | inhibition in vivo at 10 mg/kg [10]: 12%
17 | CCc1nc(-c2ccc(P(=O)(O)O)o2)c(CC(C)C)s1 | 400 nM |  | 
18 | Nc1nc(-c2ccc(F)c(P(=O)(O)O)c2)c(-c2ccccc2)s1 |  | 0% | 
19 | CCSc1sc(N)nc1-c1ccc(P(=O)(O)O)o1 | 33 nM |  | 
20 | CC(C)Cc1sc(CO)nc1-c1ccc(P(=O)(O)O)o1 | 220 nM | 8% | 

Row | Structure (SMILES) | IC50 [2] | inhibition in vivo at 10 mg/kg [3] | other results
21 | Nc1nc(-c2ccc(P(=O)(O)O)o2)c(Cl)s1 |  | 17% | 
22 | Nc1nc(-c2ccc(P(=O)(O)O)o2)c(I)s1 | 100 nM | -2% | 
23 | CCCSc1sc(N)nc1-c1ccc(P(=O)(O)O)o1 |  | 82% | 
24 | CS(=O)(=O)c1ccc(-c2sc(N)nc2-c2ccc(P(=O)(O)O)o2)cc1 | 41 nM | 78% | 
25 | CC(C)Cc1sc(Cl)nc1-c1ccc(P(=O)(O)O)o1 | 180 nM |  | 
26 | COC(=O)c1ccc(-c2sc(N)nc2-c2ccc(P(=O)(O)O)o2)cc1 | 14 nM | 78% | 
27 | CC(C)Cc1sc(-c2cccnc2)nc1-c1ccc(P(=O)(O)O)o1 | 5000 nM |  | 
28 | C=Cc1nc(-c2ccc(P(=O)(O)O)o2)c(CC(C)C)s1 | 1200 nM |  | 
29 | Nc1nc(-c2ccc(P(=O)(O)O)o2)c(N2CCOCC2)s1 | 16 nM | 75% | 
30 | Nc1nc(C(=O)NCP(=O)(O)O)c(-c2cccs2)s1 | 950 nM |  | 
31 | Cc1nc(-c2ccc(P(=O)(O)O)o2)c(CC(C)C)s1 |  | 55% | 
32 | CCc1cc(F)c(N)c2nc(-c3ccc(P(=O)(O)O)o3)n(CC(C)C)c12 |  |  | half-life [4]: 45 min; fraction unbound [5]: 0.01; clearance [6]: 4.33 mL/min/kg; Vd [7]: 0.25 L/kg; fraction unbound [8]: 0.001; bioavailability [11]: 2%
33 | CC(C)(C)c1ccc(-c2sc(N)nc2-c2ccc(P(=O)(O)O)o2)cc1 |  | 6% | 
34 | Nc1nc(-n2ccc(P(=O)(O)O)c2)c(-c2ccccc2)s1 | > 10000 nM |  | 
35 | CC(C)Cc1sc(N)nc1-c1ccc(P2(=O)OCC[C@H](c3cccc(Cl)c3)O2)o1 (stereo partly drawn) |  |  | inhibition in vivo at 30 mg/kg [1]: 53%
36 | Nc1nc(-c2ccc(P(=O)(O)O)o2)c(CC2CC2)s1 | 20 nM |  | 
37 | Nc1nc(-c2ccc(P(=O)(O)O)o2)c(C(=O)OCc2ccccc2)s1 |  | 42% | 
38 | CSc1ccc(-c2sc(N)nc2-c2ccc(P(=O)(O)O)o2)cc1 | 21 nM | 72% | 
39 | CCOC(=O)[C@H](C)NP(=O)(N[C@@H](C)C(=O)OCC)c1ccc(-c2nc(N)sc2CC(C)C)o1 |  |  | inhibition [12]: Active; inhibition in vivo at 10 mg/kg [10]: 59%
40 | Nc1nc(-c2ccc(P(=O)(O)O)o2)c(Sc2ccccc2)s1 | 300 nM |  | 

Row | Structure (SMILES) | IC50 [2] | inhibition in vivo at 10 mg/kg [3] | other results
41 | Cc1oc(-c2nc(N)sc2-c2ccccc2)nc1P(=O)(O)O | 10000 nM |  | 
42 | COc1ccccc1-c1sc(N)nc1-c1ccc(P(=O)(O)O)o1 |  | 66% | 
43 | COc1cccc(-c2sc(N)nc2-c2ccc(P(=O)(O)O)o2)c1 | 21 nM | 0% | 
44 | CCOC(=O)[C@H](C)NP(=O)(Oc1ccccc1)c1ccc(-c2nc(N)sc2CC(C)C)o1 (stereo partly drawn) |  |  | inhibition in vivo at 30 mg/kg [1]: 46%
45 | CC(C)Cn1c(-c2ccc(P(=O)(O)O)o2)nc2c(N)ncnc21 | 800 nM |  | 
46 | Nc1nc(-c2ccc(P(=O)(O)O)o2)c(-c2ccc3ccccc3c2)s1 | 12 nM | 20% | 
47 | Nc1nc(-c2ccc(P(=O)(O)O)o2)c(-c2ccc(Cl)cc2)s1 | 13 nM | 40% | 
48 | CCOC(=O)CNP(=O)(Oc1ccccc1)c1ccc(-c2nc(N)sc2CC(C)C)o1 (stereo not drawn) |  |  | inhibition in vivo at 10 mg/kg [10]: 51%
49 | Nc1nc(-c2ccc(P(=O)(O)O)o2)c(-c2ccccc2)s1 | 14 nM | 76% | 
50 | CCOC(=O)c1sc(N)nc1-c1ccc(P(=O)(O)O)o1 |  | 76% | 
51 | Nc1nc(-c2ccc(P(=O)(O)O)o2)c(-c2ccc(-c3ccccc3)cc2)s1 |  | 36% | 
52 | Nc1nc(-c2ccc(P(=O)(O)O)o2)c(-c2cccs2)s1 |  | 24% | 
53 | CSc1nc(-c2ccc(P(=O)(O)O)o2)c(CC(C)C)s1 | 890 nM |  | 
54 | Cc1sc(N)nc1-c1ccc(P(=O)(O)O)o1 | 120 nM |  | 
55 | CCCc1sc(N)nc1-c1cccc(P(=O)(O)O)c1 | 250 nM | 0% | 
56 | CCOC(=O)C(C)(C)NP(=O)(NC(C)(C)C(=O)OCC)c1ccc(-c2nc(N)sc2CC(C)C)o1 |  |  | inhibition in vivo at 10 mg/kg [10]: 45%
57 | COc1ccc(-c2sc(N)nc2-c2ccc(P(=O)(O)O)o2)cc1 | 22 nM | 63% | 
58 | CCOC(=O)[C@H](C)NP(=O)(N[C@@H](C)C(=O)OCC)c1ccc(-c2nc3c(N)c(F)cc(CC)c3n2CC(C)C)o1 |  |  | bioavailability [13]: > 10%; bioavailability [14]: > 10%; bioavailability [11]: 5%
59 | Nc1nc(-c2ccc(P(=O)(O)O)o2)c(Cc2ccccc2)s1 | 150 nM |  | 

From ChEMBL document CHEMBL1649069, “Discovery of a series of phosphonic acid-containing thiazoles and orally bioavailable diamide prodrugs that lower glucose in diabetic animals through inhibition of fructose-1,6-bisphosphatase” (J Med Chem, 2011)
